Values joined by “and” are separate entries in the source; they are usually repeats but may differ in a detail not shown here. Identical values can stand only once.
Columns and labels:
[1] = target: T1, Coxsackie virus 3C protease (Coxsackievirus B3, UniProt P03313); assay: ESI-MS of protease after incubation with inhibitor (covalent modification); format: binding; conditions: deconvoluted ESI-MS, main peak
T1 construct: 3C protease of Coxsackie virus B3 consisting of 183 amino-acid residues; made in house; host or cells: E. coli BL21(DE3), plasmid pET-23a(+)
Description: This inactivation rate corresponded to an apparent half-maximal inhibitory concentration (IC50) value of >>1 mM after 10 min (Fig. 2b, Table 1). The covalent mode of action was confirmed by electrospray ionization high-resolution ion mobility spectrometry-mass spectrometry (ESI-MS) measurements. Incubation of the protease with warhead 1 shifted the main deconvoluted mass peak of the protein from 21,471.5 to 21,588.5 Da and the observed protein mass difference of 117 Da corresponded well with the molecular weight of bis-electrophile 1 after hydrolysis of the ethyl ester.
High-resolution mass spectra were recorded on a Synapt G2-S HDMS by Waters Co. (Milford, […]) equipped with an Acquity UPLC and a Phenomenex Jupiter C-18 column (3 × 250 mm, 5 μm, 300 Å). The ionization and transfer parameters of the MS system have been optimized for a standard sample (insulin) and were applied without modification. Deconvolution of measurement results was performed by the MaxEnt1 method of the MassLynx software by Waters Co. The most important source parameters are: capillary voltage: 3.3 kV, sampling cone: 40 V, source offset: 60 V, source temperature: 100 °C, desolvation temperature: 250 °C, desolvation gas flow: 600 l h^−1. […]

CVB3 3C protease = target: T2, CVB3 3C protease (Coxsackievirus B3, UniProt P03313); assay: FRET-based enzyme activity assay (warhead activation / inhibitor kinetics); format: biochemical, Coxsackie virus B3
T2 construct: 3C protease of Coxsackie virus B3 consisting of 183 amino-acid residues; made in house; host or cells: E. coli BL21(DE3), plasmid pET-23a(+)
Description: The activity of the protease was measured by hydrolysis of the FRET-substrate N-Dabcyl-KTLEALFQ↓GPPVYE(Edans)-NH2. The peptide was purchased from Biosyntan (Berlin, Germany). Samples were irradiated with light with a wavelength of 355 nm and the emitted light at 538 nm was measured in relative fluorescence units (RFUs). An amount of 100 pmol of cleaved substrate equals 5,000 RFU.
Assay samples contained 10 μl of a 100 mM HEPES-NaOH buffer solution pH 7.5/1 mM EDTA, 10 μl enzyme solution (2 μM CVB3 3C^Pro), 10 μl of 10 μM substrate solution (both dissolved in the above buffer) and 1 μl Inhibitor and/or fragment dissolved in DMSO. For assay results of a dilution series of a mixture of 1 and 2 and comparison of reaction products in dependence of the assay solvent, see Supplementary Figs 1 and 2.
The screening procedure consisted of the following steps: 10 μl 100 mM HEPES-NaOH buffer solution pH 7.5/1 mM EDTA was placed in a cavity of the 384-well plate (polystyrene, Corning 3544). Then 10 μl of enzyme solution (40 μM CVB3 3C protease in 100 mM HEPES-NaOH buffer solution, pH 7.5/1 mM EDTA) was added and the plate was shaken for 2 min at 1,400 r.p.m. Afterwards, 0.5 μl of a DMSO solution of the electrophilic probe and 0.5 μl of a DMSO solution of the nucleophile was added, followed by 10 μl of substrate solution (10 μM in 100 mM HEPES-NaOH buffer solution, pH 7.5/1 mM EDTA). The plate was shaken again for 2 min at 1,400 r.p.m. and the generated fluorescence signal was measured with a Safire II Fluorimeter from Tecan. The electrophilic probe 1 was used at a concentration of 400 μM for the screening, which lowered the protease activity by 10–20%. Eight-hundred fifty primary amines were tested at a concentration of 320 μM and fragment 2 amplified the inhibitory activity of 1 most potently. Positive control samples contained only DMSO instead of the probe or the nucleophile. Negative control samples contained no active enzyme. An interfering fluorescent effect has not been observed.
When determining the inhibitory parameters of an inhibitor, the assay set-up was as mentioned but 1 μl DMSO solution of inhibitor was used instead of probe or nucleophile. Different concentrations of inhibitor were tested at least as duplicates and the pseudo-first-order association kinetics (kobs) were determined using GraphPad Prism. The slope of a plot of the different kobs values against the inhibitor concentration yielded kinact/KI.

T2 sequence (P03313 1541-1723): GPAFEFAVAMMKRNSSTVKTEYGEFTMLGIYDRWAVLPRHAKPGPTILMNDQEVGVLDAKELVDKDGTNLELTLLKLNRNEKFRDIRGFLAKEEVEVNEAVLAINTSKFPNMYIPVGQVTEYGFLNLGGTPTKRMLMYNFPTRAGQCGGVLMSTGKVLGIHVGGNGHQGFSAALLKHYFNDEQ
T1 sequence (P03313 1541-1723): as above

## CCOC(=O)[C@H]1O[C@@H]1C=O [Compound 1, ethyl (2S,3S)-epoxy-4-oxo-butanoate]
[1]
  observed protein mass difference after incubation: 117 Da
CVB3 3C protease
  inhibition of the protease, in words: virtually inactive
CVB3 3C protease; after 10 min, read-out: apparent half-maximal inhibitory concentration (IC50)
  IC50: > 1 mM
CVB3 3C protease; probe at 400 μM, screening
  lowering of protease activity: 10–20%
CVB3 3C protease; relative inactivation rate, slope of kobs against inhibitor concentration
  kinact/KI: 2.36 M⁻¹ s⁻¹ and 2.4 ± 0.1 M⁻¹ s⁻¹

From article PMC5052702 (Nature Communications, 2016)
